Legend:
[1] = test system: excised leaves of control tobacco plants transformed with pBI121; assay: In vivo herbicide metabolism assay, excised leaves of control tobacco; parameters: species or system Nicotiana tabacum cv SR1; settings: after 14 hours; 1.2 nmol herbicide; standard error in parentheses; three pBI121 control plants
Protocol: Seeds from primary transgenic tobacco plants transformed with CYP71A10 and control plants transformed with the pBI121 vector were grown in Petri dishes containing MS salts and 100 μg/ml kanamycin. At five weeks post-seeding, kanamycin-resistant plantlets were transplanted into pots containing soil and grown an additional two weeks. Single leaves of approximately 10 cm^2 in size were excised and their petioles inserted into 100 μl of H2 O containing radiolabeled herbicide. The leaves were placed in a growth chamber maintaining a temperature of 27° C. and incubated until the entire volume of the herbicide solution was drawn up by the transpirational stream of the leaves (about 3 hrs). The leaves were subsequently transferred into an Eppendorf tube containing distilled water and further incubated for a total of 14 hours.
[^14 C]-labeled herbicide was extracted from the leaves by grinding for 5 minutes in 250 μl methanol with a plastic pellet pestle driven by an electric drill. After centrifugation for 3 minutes at 14,000 g, 75μl of the supernatant was spotted on a Whatman K6F silica plate and developed in a solvent system containing chloroforn/ethanol/acetic acid 135:10:15 (v/v/v). The separated herbicide derivatives were visualized using an imaging scanner. Substrate conversion was quantified based on the amount of herbicide absorbed, and the ratios of the parent compound and the produced metabolites determined from the TLC profiles.

[2] = test system: CYP71A10-transformed tobacco; assay: Herbicide tolerance, seeds germinated on herbicide medium, CYP71A10-transformed tobacco; type: in vivo, Nicotiana tabacum cv SR1; settings: 1.0 μM chlortoluron in medium
Protocol: (§1) T1 generation seeds from CYP71A10-transformed tobacco and pBI121-transformed control plants were placed onto Petri dishes containing MS salts and linuron (using its commercial formulation LOROX 50 DF) at active ingredient concentrations ranging from 0.25 to 3.0 μM. Chlortoluron was added at 0, 1.0, 5.0 and 10.0 μM concentrations using a 99.5% pure analytical standard. The Petri dishes were incubated in a growth chamber maintaining a constant temperature of 27° C. and a 16/8 hour light/dark cycle. The phytotoxic effects of the treatments were determined visually by comparison to control plants and plants grown in the absence of the herbicide. All treatments were repeated at least twice.

[3] = test system: wild-type SR1 plants and pBI121-transformed control tobacco plants; assay: Herbicide tolerance, seeds germinated on herbicide medium, control tobacco; type: in vivo, Nicotiana tabacum cv SR1; settings: 1.0 μM chlortoluron in medium
Protocol: as §1

[4] = biological target: T1, CYP73A1 (trans-cinnamic acid hydroxylase) (Helianthus tuberosus, UniProt Q04468); settings: CYP73A1 expressed in yeast, chlortoluron ring-methyl hydroxylation; cited from earlier work
T1 construct: host or cells: yeast
T1 sequence (Q04468 1-505): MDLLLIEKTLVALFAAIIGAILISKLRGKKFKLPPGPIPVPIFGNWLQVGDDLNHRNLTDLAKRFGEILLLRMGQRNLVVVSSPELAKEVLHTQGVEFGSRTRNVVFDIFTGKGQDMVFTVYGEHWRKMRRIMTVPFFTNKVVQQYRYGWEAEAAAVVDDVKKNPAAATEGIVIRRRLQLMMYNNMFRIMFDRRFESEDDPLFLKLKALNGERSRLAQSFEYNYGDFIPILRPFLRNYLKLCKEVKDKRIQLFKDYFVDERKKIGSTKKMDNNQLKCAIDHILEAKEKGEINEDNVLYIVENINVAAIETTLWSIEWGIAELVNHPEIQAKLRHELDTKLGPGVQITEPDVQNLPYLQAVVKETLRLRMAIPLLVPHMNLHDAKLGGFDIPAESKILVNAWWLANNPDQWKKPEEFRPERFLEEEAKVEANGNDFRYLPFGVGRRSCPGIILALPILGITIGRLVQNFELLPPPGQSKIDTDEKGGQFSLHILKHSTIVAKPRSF

In the case of `Cc1ccc(NC(=O)N(C)C)cc1Cl` [Chlortoluron, chlortoluron], the “% of herbicide metabolized, Control” value [1] is reported as 39 (7.5) %, the “growth of the 25/2 plants” value [2] is reported as “modestly inhibited” and the “growth of the control plants” value [3] is reported as “completely arrested”. For the same molecule, the “turnover number of the heterologously expressed enzyme” value [4] was 0.014 /min.

From patent US6121512A, “Cytochrome P-450 constructs and method of producing herbicide-resistant transgenic plants” (North Carolina State University, priority 1997, dated 2000)
